Assay results published in US20240216272A1, “PHARMACEUTICAL PREPARATION” (KOWA COMPANY, LTD., priority 2014, published 2024).

Columns and labels:
Type in all cases: physicochemical
[1] = Test Example 1: photostability of ripasudil (powder), analogs by HPLC; details: for Analogs (%): powder in glass petri dish, D65 fluorescent lamp 4000 lux, 25° C.
Description: In the following test examples, ripasudil monohydrochloride dihydrate can be produced in accordance with the method described in WO2006/057397, for example. Moreover, in the following test examples, measurement of ripasudil and its analogs using HPLC was performed using an ODS column as the column, 0.01 mol/L phosphate buffer and acetonitrile as the mobile phase, and an ultraviolet absorptiometer (wavelength: 280 nm) as the detector.
The stability of ripasudil with respect to light was evaluated by examining the presence or absence of degradation products formed by exposure to light.
Specifically, powdery ripasudil monohydrochloride dihydrate was spread in a glass petri dish to a thickness of 3 mm or less, and then irradiated with 4000 lux of light to give a cumulative radiation dose of 400,000, 800,000, or 1,200, 000 lux·hr, at 25° C., with a D65 fluorescent lamp as the light source, using a photostability tester (LT-120A: Nagano Science Corporation).
To examine the presence or absence of photodegradation products of ripasudil, the presence or absence of an increase in the amount of ripasudil analogs was evaluated for the sample before and after exposure to light. The amount of analogs was evaluated as the ratio (%) of the peak area of analogs relative to the peak area of ripasudil, using HPLC.

[2] = Test Example 6: photostability in container with shrinkable film containing an ultraviolet scattering agent; details: for Analogs (%): aqueous composition 0.4 g/100 mL as free form, pH 6.0, polypropylene container wound with shrinkable film containing titanium oxide (transmittance 300 to 335 nm: 0.3%)
Description: Stabilization of the aqueous composition containing ripasudil was attempted by storing the aqueous composition in a container containing an ultraviolet scattering agent, as in Test Example 5. Specifically, the test was performed as in Test Example 5, except that the below-described container including a shrinkable film containing an ultraviolet scattering agent was used instead of the container containing an ultraviolet absorber, and a white fluorescent lamp (one used in a hospital dispensary and the like) was used as the light source instead of the D65 fluorescent lamp. A white shrinkable film (heat-shrinkable film) (Iwata Label Co., Ltd.) into which 40 to 45 mass % of titanium oxide was mixed as an ultraviolet scattering agent was wound around a side surface of a general container for eye drops made of polypropylene not containing an ultraviolet absorber, an ultraviolet scattering agent, or the like, in accordance with a conventional method, and the resulting container was used. […] Since the shrinkable film was not transparent, the contents were not visible through the side surface of the container in this state (for example, the average value of transmittance of light in the visible light region (450 to 750 nm) was 1.1%). Thus, slits with about a width of 5 mm were provided in the lower half of the side surface of the container to make the amount of the contents visible (this portion was not able to block the rays). The contents were visible through the bottom surface of the container, since the shrinkable film was not wound around the bottom surface.

[3] = Test Example 9: Preservation Test No. 3, precipitation of crystals at 0° C.; set-up: key to Presence or Absence of Precipitation of Crystals: the absence of precipitation of crystals was rated as “a”; the presence of precipitation of crystals was rated as “b”; details: for Presence or Absence of Precipitation of Crystals: aqueous composition of Table 11 (phosphate, pH 6.7), 0° C. for 2 days; for precipitation of crystals: preserved at low temperature, in words
Description: An aqueous composition of the formulation shown in Table 11 was prepared in accordance with a conventional method, and then placed in a container made of polyethylene terephthalate (PET) or polyvinyl chloride (PVC) to produce a pharmaceutical preparation. Each of the resulting pharmaceutical preparations was preserved at 0° C. for 2 days, and then visually evaluated for the presence or absence of precipitation of crystals. Note that the absence of precipitation of crystals was rated as “a”, and the presence of precipitation of crystals was rated as “b”. [table]

[4] = Test Example 5: photostability in plastic container containing an ultraviolet absorber; details: for Analogs (%): aqueous composition 0.4 g/100 mL as free form, pH 6.0, polypropylene container containing ultraviolet absorber (transmittance 300 to 335 nm: 7.2%)
Description: Based on the results obtained in Test Examples 3 and 4, stabilization of an aqueous composition containing ripasudil was attempted by storing the aqueous composition in a container containing an ultraviolet absorber.
Specifically, an aqueous composition containing, per 100 mL, 0.4896 g of ripasudil monohydrochloride dihydrate (0.4 g, as the free form of ripasudil), 0.4 g of anhydrous sodium dihydrogen phosphate, 2.136 g of glycerin, 0.002 g of benzalkonium chloride, an appropriate amount of sodium hydroxide (pH 6.0), and sterile purified water (balance) was prepared. This aqueous composition was then stored in the below-described container for eye drops made of polypropylene, which contained an ultraviolet absorber. The aqueous composition was then irradiated with 4000 lux of light to give a cumulative radiation dose of 1,200,000 lux.hr, at 25° C., with a D65 fluorescent lamp as the light source, using a photostability tester (LT-120A: Nagano Science Corporation).
The amount of ripasudil analogs was evaluated for the sample before and after exposure to light, as in Test Example 1.
A container for eye drops made of polypropylene into which a benzotriazole-based ultraviolet absorber was mixed was used.

[5] = Test Example 8: Preservation Test No. 2, color difference (ΔYI) at 60° C.; details: for ΔYI: aqueous composition of Table 9 (boric acid, pH 6.7), 60° C. for 3 months; for Evaluation (ΔYI): aqueous composition of Table 9, 60° C. for 3 months
Description: An aqueous composition of the formulation shown in Table 9 was prepared in accordance with a conventional method, and then placed in a container made of polyethylene (PE) or polypropylene (PP) to produce a pharmaceutical preparation. Each of the resulting pharmaceutical preparations was preserved at 60° C. for 3 months, and a color difference (ΔYI) before and after the preservation was measured using a color difference meter (spectrophotometer, CM-700d: Konica Minolta Sensing, Inc.). A ΔYI value of 5 or more was rated as “b”, and a ΔYI value of less than 5 was rated as “a”. [table]

Analogs (%) ([1]; before exposure to light): 0.11%
Analogs (%) ([1]; cumulative radiation dose 400,000 lux·hr): 0.14%
Analogs (%) ([1]; cumulative radiation dose 800,000 lux·hr): 0.16%
Analogs (%) ([1]; cumulative radiation dose 1,200,000 lux·hr): 0.16%
Analogs (%) ([2]; before exposure to light): 0.13%
Analogs (%) ([2]; white fluorescent lamp, 1,200,000 lux·hr): 0.28%
photostability of ripasudil in the aqueous composition ([2]; container with average transmittance at 300 to 335 nm of 0.3%, in words): improved
Presence or Absence of Precipitation of Crystals ([3]; container PET): a
Presence or Absence of Precipitation of Crystals ([3]; container PVC): b
precipitation of crystals ([3]; container made of PVC): precipitation of crystals was observed
Analogs (%) ([4]; D65 lamp, 25° C., 1,200,000 lux·hr): 0.55%
Analogs (%) ([4]; before exposure to light): 0.11%
photostability of ripasudil in the aqueous composition ([4]; container with average transmittance at 300 to 335 nm of 7.2%, in words): improved
ΔYI ([5]; container PE): 4.15
ΔYI ([5]; container PP): 4.64
Compound: C[C@H]1CNCCCN1S(=O)(=O)c1cccc2cncc(F)c12 [ripasudil, 4-fluoro-5-[[(2S)-2-methyl-1,4-diazepan-1-yl]sulfonyl]isoquinoline]
formation of photodegradation products ([1]; powder, up to 1,200,000 lux·hr, in words): no formation of photodegradation products was observed
precipitation of crystals ([3]; container made of PET): no precipitation of crystals was observed
Evaluation (ΔYI) ([5]; container PE): a (a ΔYI value of less than 5 was rated as “a”)
Evaluation (ΔYI) ([5]; container PP): a (a ΔYI value of less than 5 was rated as “a”)
